Test results taken from the supplement of paper PMC10307832.

Assays:
Assay in all cases: relative viability (nuclei count vs DMSO), 5 days (fraction); higher = more cells survive
[1] = compound: O=C(O)c1ccc2c(c1)nc(Nc1cccc(Cl)c1)c1ccncc12 [Silmitasertib] + CC1(C)CCC(c2ccc(Cl)cc2)=C(CN2CCN(c3ccc(C(=O)NS(=O)(=O)c4ccc(N[C@H](CCN5CCOCC5)CSc5ccccc5)c(S(=O)(=O)C(F)(F)F)c4)cc3)CC2)C1 [Navitoclax] (partner 0.5 µM)
Summary of the method: (§1)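 A single step with final 0.05% Triton X-100, 1% formaldehyde and 1 ug/ml Hoechst fixed the cells and stained nuclei 5 days after treatment. Lung cancer cell lines in 1536-well plates had been treated by pin tool the day after seeding with one drug alone or a fixed anchor-drug dose plus five library-drug doses (not always all listed) in √10 steps, and nuclei were counted on 4× images. Relative viability is the ratio of nuclei in treated wells to nuclei in vehicle wells, taken as the median of duplicate plates.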

[2] = compound: O=C(O)c1ccc2c(c1)nc(Nc1cccc(Cl)c1)c1ccncc12 [Silmitasertib] + COc1cc2c(Oc3ccc(NC(=O)C4(C(=O)Nc5ccc(F)cc5)CC4)cc3F)ccnc2cc1OCCCN1CCOCC1 [Foretinib] (partner 0.25 µM)
Summary of the method: as §1

[3] = compound: O=C(O)c1ccc2c(c1)nc(Nc1cccc(Cl)c1)c1ccncc12 [Silmitasertib] + COc1cccc2cc(-c3nc([C@H]4CC[C@H](C(=O)O)CC4)n4ncnc(N)c34)[nH]c12 [OSI-027] (partner 0.5 µM)
Summary of the method: as §1

[4] = compound: O=C(O)c1ccc2c(c1)nc(Nc1cccc(Cl)c1)c1ccncc12 [Silmitasertib] + Cc1cc(Nc2cc(N3CCN(C)CC3)nc(Sc3ccc(NC(=O)C4CC4)cc3)n2)n[nH]1 [Tozasertib] (partner 0.1 µM)
Summary of the method: as §1

[5] = compound: O=C(O)c1ccc2c(c1)nc(Nc1cccc(Cl)c1)c1ccncc12 [Silmitasertib] + Nc1nc2[nH]cc(CCc3ccc(C(=O)N[C@@H](CCC(=O)O)C(=O)O)cc3)c2c(=O)[nH]1 [Pemetrexed] (partner 0.2 µM)
Summary of the method: as §1

Cell Line	relative viability ([1]; first compound 0.04 µM)	relative viability ([1]; first compound 0.4 µM)	relative viability ([1]; first compound 1.265 µM)	relative viability ([1]; first compound 4 µM)	relative viability ([2]; first compound 0.04 µM)	relative viability ([2]; first compound 0.4 µM)	relative viability ([2]; first compound 1.265 µM)	relative viability ([2]; first compound 4 µM)	relative viability ([3]; first compound 0.04 µM)	relative viability ([3]; first compound 0.4 µM)	relative viability ([3]; first compound 1.265 µM)	relative viability ([3]; first compound 4 µM)	relative viability ([4]; first compound 0.04 µM)	relative viability ([4]; first compound 0.4 µM)	relative viability ([4]; first compound 1.265 µM)	relative viability ([4]; first compound 4 µM)	relative viability ([5]; first compound 0.04 µM)	relative viability ([5]; first compound 0.4 µM)	relative viability ([5]; first compound 1.265 µM)	relative viability ([5]; first compound 4 µM)
201T	1.21	1.19	1.26	1.31	1.2	1.19	1.09	1.21	0.821	0.631	0.719	0.462	0.955	0.818	1.04	1.05	0.381	0.229	0.341	0.381
A549	1.44	1.16	1.27	1.04	0.961	0.819	0.952	0.858												
A-427	1.05		0.943	0.566	1.1		1.13	0.869	0.617		0.425	0.192	0.19		0.132	0.15	1.04	0.826	1.05	0.669
ABC-1					1.07	0.83	0.457	0.367	0.52	0.37	0.221	0.226	0.19	0.165	0.185	0.193				
BEN	0.0617	0.0687	0.059	0.0431	0.858		0.657	0.467	0.317		0.336	0.269	0.435	0.367	0.481	0.422	0.905	0.715	0.703	0.609
CAL-12T	1.39	1.16	1.19	0.387	1.12	1.02	1.06	0.478	0.839	0.542	0.29	0.23	0.292	0.282	0.227	0.175	1.35	1.06	0.889	0.818
COR-L23	1.1	0.982	1.06	0.968	1.09	0.794	0.951	1.16	0.786	0.496	0.828	0.419	0.232	0.2	0.118	0.159	0.206	0.223	0.181	0.192
COR-L 105	0.999	0.691	0.71	0.563	1.44	0.881	0.791	0.562	0.767	0.617	0.58	0.348	0.394	0.349	0.389	0.326	1.05	1.19	0.951	0.785
ChaGo-K-1	1.45	0.917	0.84	0.574	0.99	0.731	0.876	0.971	0.602	0.456	0.567	0.353	0.198	0.219	0.231	0.241	0.265	0.24	0.253	0.275
EKVX	0.874	0.648	0.681	0.681	0.783	0.435	0.408	0.411	0.812	0.533	0.605	0.662	0.434	0.25	0.295	0.405	0.394		0.383	0.338
EMC-BAC-2	1.24	1.03	1.14	1.09	1.04	0.861	0.577	0.411	0.395	0.348	0.276	0.249	0.291	0.272	0.198	0.162	0.455	0.319	0.423	0.369
EPLC-272H	1.09		0.747	0.807	0.687		0.321	0.219	0.301		0.24	0.178	0.215		0.205	0.187	0.374	0.359	0.385	0.122
H3255	0.593	0.294	0.347	0.208	1.02	0.549	0.746	0.97	0.73	0.591	0.545	0.613	0.756	0.593	0.678	0.59	0.602	0.5	0.394	0.499
HARA	1.16	0.88	0.944	0.984	0.87	0.627	0.473	0.734	0.715	0.203	0.432	0.141	0.107	0.0804	0.0797	0.0693	0.268	0.215	0.213	0.235
HCC-15	0.745	0.556	0.548	0.438	1.03	0.86	0.772	0.761	0.761	0.552	0.437	0.24	0.392	0.356	0.232	0.133	0.242	0.229	0.216	0.215
HCC-44	0.926	0.874	0.892	0.928					0.524	0.606	0.508	0.29	1.13	0.853	0.802	0.691	0.63	0.667	0.71	0.661
HCC-78	0.892	0.672	0.757	0.65	0.503	0.523	0.457	0.621	0.437	0.346	0.369	0.335	0.446	0.315	0.384	0.492	0.91	0.886	0.613	0.918
